Source: patent US20100048597A1 (Novartis AG, priority 2006, published 2010)
Read-outs that look alike come from different tables or passages of the source.

Tests used:
Type in all cases: biochemical
[1] = target: T1, CDK1/cyclinB (Homo sapiens, UniProt P06493); experiment: CDK1/cyclinB kinase assay, IMAP fluorescence polarization
T1 construct: purchased Millipore
Method: (§1) Kinase assays were performed on recombinant purified enzymes using the non-radioactive IMAP fluorescence polarization assay format.
(§2) Compound stocks were prepared and diluted in DMSO and were added to kinase reactions at a 1/100 dilution for a final concentration of 1% DMSO. The components were added together to final concentrations listed in the tables below and incubated for two hours at room temperature.
(§3) The reactions were stopped by addition of stop solution.
The samples were allowed to incubate for one more hour at room temperature and then the fluorescence polarization was measured.

[2] = target: T2, CDK2/cyclinA (Homo sapiens, UniProt P24941); experiment: CDK2/cyclinA kinase assay, IMAP fluorescence polarization
T2 construct: purchased Millipore
Method: as §1, §2, §3
CDK2: final stop concentration is 1× Developer buffer (100% A), IMAP beads 1/400
(§4) The samples were allowed to incubate for one more hour at room temperature and then the fluorescence polarization was measured. The plate normalized millipolarization (mP) values were plotted against the log of compound concentration for each compound and IC50 values were calculated using the spotfire IC50 calculator and confirmed by visual analysis.

[3] = target: T3, CDK9/cyclinT1 (Homo sapiens, UniProt P50750); experiment: CDK9/cyclinT1 kinase assay, IMAP fluorescence polarization
T3 construct: purchased Millipore
T3 sequence (P50750 whole entry): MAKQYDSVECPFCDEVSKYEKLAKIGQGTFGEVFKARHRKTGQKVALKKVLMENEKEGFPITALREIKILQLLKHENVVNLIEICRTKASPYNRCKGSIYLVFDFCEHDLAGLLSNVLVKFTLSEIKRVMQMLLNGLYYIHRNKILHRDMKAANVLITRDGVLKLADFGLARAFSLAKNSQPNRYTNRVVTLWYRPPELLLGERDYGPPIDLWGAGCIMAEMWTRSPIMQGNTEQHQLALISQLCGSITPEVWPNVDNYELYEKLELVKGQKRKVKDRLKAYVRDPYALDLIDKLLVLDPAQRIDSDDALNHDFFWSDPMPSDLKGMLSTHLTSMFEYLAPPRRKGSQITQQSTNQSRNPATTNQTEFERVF
T3 sequence (O60563 whole entry partner): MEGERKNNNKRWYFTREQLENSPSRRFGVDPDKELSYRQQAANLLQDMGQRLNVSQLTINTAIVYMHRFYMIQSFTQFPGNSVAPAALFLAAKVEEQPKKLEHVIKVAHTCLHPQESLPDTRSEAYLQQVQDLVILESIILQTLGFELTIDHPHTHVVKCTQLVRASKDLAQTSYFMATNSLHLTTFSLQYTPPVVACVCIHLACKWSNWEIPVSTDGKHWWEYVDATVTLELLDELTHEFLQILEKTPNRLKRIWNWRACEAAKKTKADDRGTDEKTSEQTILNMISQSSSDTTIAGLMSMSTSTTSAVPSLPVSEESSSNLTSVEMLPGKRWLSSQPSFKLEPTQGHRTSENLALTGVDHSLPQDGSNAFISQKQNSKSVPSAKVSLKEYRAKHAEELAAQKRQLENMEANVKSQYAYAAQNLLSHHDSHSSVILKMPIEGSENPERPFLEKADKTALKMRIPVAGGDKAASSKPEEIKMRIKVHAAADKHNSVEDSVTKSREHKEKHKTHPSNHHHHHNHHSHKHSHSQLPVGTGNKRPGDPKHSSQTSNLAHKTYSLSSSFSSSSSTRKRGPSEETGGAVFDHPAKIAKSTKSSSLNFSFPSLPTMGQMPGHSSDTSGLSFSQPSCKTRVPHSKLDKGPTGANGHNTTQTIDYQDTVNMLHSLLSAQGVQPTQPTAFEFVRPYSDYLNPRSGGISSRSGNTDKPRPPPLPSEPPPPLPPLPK
Method: as §1, §2, §3
CDK9/CDK1/CDK7: final stop concentration is 1× Developer buffer (85% A/15% B), IMAP beads 1/400
as §4

T1 sequence (P06493 whole entry): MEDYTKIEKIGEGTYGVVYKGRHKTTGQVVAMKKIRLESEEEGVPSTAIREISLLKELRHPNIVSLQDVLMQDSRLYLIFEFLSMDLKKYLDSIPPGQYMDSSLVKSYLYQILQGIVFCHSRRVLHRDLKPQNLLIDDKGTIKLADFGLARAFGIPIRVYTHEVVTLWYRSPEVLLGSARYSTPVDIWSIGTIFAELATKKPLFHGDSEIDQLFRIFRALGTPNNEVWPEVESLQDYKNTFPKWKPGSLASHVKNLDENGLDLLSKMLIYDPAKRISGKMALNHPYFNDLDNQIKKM
T1 sequence (P14635 whole entry partner): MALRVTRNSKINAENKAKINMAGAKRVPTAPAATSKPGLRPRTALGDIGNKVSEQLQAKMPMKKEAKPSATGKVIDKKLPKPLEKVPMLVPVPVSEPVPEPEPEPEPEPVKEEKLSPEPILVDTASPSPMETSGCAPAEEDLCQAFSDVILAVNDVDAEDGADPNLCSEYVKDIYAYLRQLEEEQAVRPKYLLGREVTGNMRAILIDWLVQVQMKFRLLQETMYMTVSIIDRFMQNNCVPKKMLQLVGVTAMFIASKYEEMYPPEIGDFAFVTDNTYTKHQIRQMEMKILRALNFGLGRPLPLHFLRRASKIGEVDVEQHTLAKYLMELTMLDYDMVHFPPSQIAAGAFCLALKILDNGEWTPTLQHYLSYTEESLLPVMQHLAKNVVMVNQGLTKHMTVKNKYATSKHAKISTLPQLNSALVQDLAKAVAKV

Row | IC50 ([1]; read-out: CDK1 IC50) [µM] | IC50 [2] [µM] | IC50 [3] [µM] | SMILES | IC50 [1] [µM]
1 | 15 to 50 |  | 15 to 50 | CNc1nccc(-c2cccnc2OC)n1 [Compound 87, [4-(2-Methoxy-pyridin-3-yl)-pyrimidin-2-yl]-methyl-amine] | 
2 | 15 to 50 |  | 5 to 15 | COc1ncccc1-c1ccnc(NC2CCCCC2)n1 [Compound 88, Cyclohexyl-[4-(2-methoxy-pyridin-3-yl)-pyrimidin-2-yl]-amine] | 
3 | > 50 | > 50 | > 50 | COc1ncccc1-c1ccnc(Nc2ccncc2)n1 [Compound 89] | 
4 | > 50 | > 50 | > 50 | COc1ncccc1-c1ccnc(Nc2cccnc2)n1 [Compound 90, [4-(2-Methoxy-pyridin-3-yl)-pyrimidin-2-yl]-pyridin-3-yl-amine] | 
5 | > 50 | > 50 | < 5 | COc1ncccc1-c1ccnc(Nc2cccc([N+](=O)[O-])c2)n1 [Compound 92, [4-(2-Methoxy-pyridin-3-yl)-pyrimidin-2-yl]-(3-nitro-phenyl)-amine] | 
6 | 15 to 50 | < 5 | 15 to 50 | COc1ncccc1-c1ccnc(Nc2cccc(C(=O)O)c2)n1 [Compound 94, 3-[4-(2-Methoxy-pyridin-3-yl)-pyrimidin-2-ylamino]-benzoic acid] | 
7 | < 5 | < 5 | < 5 | COc1ncccc1-c1ccnc(Nc2cccc(C(N)=O)c2)n1 [Compound 95, 3-[4-(2-Methoxy-pyridin-3-yl)-pyrimidin-2-ylamino]-benzamide] | 
8 | < 5 | < 5 | < 5 | CCNC(=O)c1cccc(Nc2nccc(-c3cccnc3OC)n2)c1 [Compound 96, N-Ethyl-3-[4-(2-methoxy-pyridin-3-yl)-pyrimidin-2-ylamino]-benzamide] | 
9 | 5 to 15 | 5 to 15 | < 5 | COc1ncccc1-c1ccnc(Nc2cccc(C(=O)NCCN(C)C)c2)n1 [Compound 97, N-(2-Dimethylamino-ethyl)-3-[4-(2-methoxy-pyridin-3-yl)-pyrimidin-2-ylamino]-benzamide] | 
10 | < 5 | < 5 | < 5 | COc1ncccc1-c1ccnc(Nc2cccc(NC(C)=O)c2)n1 [Compound 98, N-{3-[4-(2-Methoxy-pyridin-3-yl)-pyrimidin-2-ylamino]-phenyl}-acetamide] | 
11 | < 5 | < 5 | < 5 | CNS(=O)(=O)c1cccc(Nc2nccc(-c3cccnc3OC)n2)c1 [Compound 100, 3-[4-(2-Methoxy-pyridin-3-yl)-pyrimidin-2-ylamino]-N-methyl-benzenesulfonamide] | 
12 | > 50 | < 5 | < 5 | CCNS(=O)(=O)c1cccc(Nc2nccc(-c3cccnc3OC)n2)c1 [Compound 101, N-Ethyl-3-[4-(2-methoxy-pyridin-3-yl)-pyrimidin-2-ylamino]-benzenesulfonamide] | 
13 | < 5 | < 5 | < 5 | COc1ncccc1-c1ccnc(Nc2cccc(S(=O)(=O)NCCO)c2)n1 [Compound 103, N-(2-Hydroxy-ethyl)-3-[4-(2-methoxy-pyridin-3-yl)-pyrimidin-2-ylamino]-benzenesulfonamide] | 
14 | > 50 | > 50 | > 50 | COc1ncccc1-c1ccnc(Nc2cccc(S(=O)(=O)NC3CCCCC3)c2)n1 [Compound 104, N-Cyclohexyl-3-[4-(2-methoxy-pyridin-3-yl)-pyrimidin-2-ylamino]-benzenesulfonamide] | 
15 | 5 to 15 | 15 to 50 | < 5 | COc1ncccc1-c1ccnc(Nc2cccc(N3CCCC3)c2)n1 [Compound 106, [4-(2-Methoxy-pyridin-3-yl)-pyrimidin-2-yl]-(3-pyrrolidin-1-yl-phenyl)-amine] | 
16 | > 50 |  | 5 to 15 | COc1ccc(-c2ccnc(Nc3cccc(Cl)c3)n2)c(OC)n1 [Compound 118, (3-Chloro-phenyl)-[4-(2,6-dimethoxy-pyridin-3-yl)-pyrimidin-2-yl]-amine] | 

The remaining lines, values behind:

Row | SMILES | IC50 ([1]; read-out: CDK1 IC50) [µM] | IC50 [2] [µM] | IC50 [3] [µM] | IC50 [1] [µM]
17 | Nc1cnccc1-c1ccnc(Nc2cccc(Cl)c2)n1 [Compound 1, [4-(3-Amino-pyridin-4-yl)-pyrimidin-2-yl]-(3-chloro-phenyl)-amine] | < 5 | < 5 | < 5 | 
18 | COCCCNc1nccc(-c2ccnc(Nc3cccc(Cl)c3)n2)c1C [Compound 18, (3-Chloro-phenyl)-{4-[2-(3-methoxy-propylamino)-3-methyl-pyridin-4-yl]-pyrimidin-2-yl}-amine] | < 5 | < 5 | < 5 | 
19 | Clc1cccc(Nc2nccc(-c3cccnc3NCC3CCCCC3)n2)c1 [Compound 50, (3-Chloro-phenyl)-{4-[2-(cyclohexylmethyl-amino)-pyridin-3-yl]-pyrimidin-2-yl}-amine] | > 50 | > 50 | > 50 | 
20 | CN(C)CCNc1ncccc1-c1ccnc(Nc2cccc(Cl)c2)n1 [Compound 53, N-{3-[2-(3-Chloro-phenylamino)-pyrimidin-4-yl]-pyridin-2-yl}-N′,N′-dimethyl-ethane-1,2-diamine] | 15 to 50 | 5 to 15 | < 5 | 
21 | CC(=O)NCCNc1ncccc1-c1ccnc(Nc2cccc(Cl)c2)n1 [Compound 54, N-(2-{3-[2-(3-Chloro-phenylamino)-pyrimidin-4-yl]-pyridin-2-ylamino}-ethyl)-acetamide] | < 5 | < 5 | < 5 | 
22 | Cc1cnc(Nc2cccc(Cl)c2)nc1-c1cccnc1NCCCN [Compound 56, N-{3-[2-(3-Chloro-phenylamino)-5-methyl-pyrimidin-4-yl]-pyridin-2-yl}-propane-1,3-diamine] | < 5 | < 5 | < 5 | 
23 | CCCCNc1ncccc1-c1nc(Nc2cccc(Cl)c2)ncc1C [Compound 57, [4-(2-Butylamino-pyridin-3-yl)-5-methyl-pyrimidin-2-yl]-(3-chloro-phenyl)-amine] | > 50 | > 50 | < 5 | 
24 | CNCCCNc1ncccc1-c1ccnc(Nc2cccc(Cl)c2)n1 [Compound 62, N-{3-[2-(3-Chloro-phenylamino)-pyrimidin-4-yl]-pyridin-2-yl}-N′-methyl-propane-1,3-diamine] | 5 to 15 | 5 to 15 | < 5 | 
25 | CC(=O)NCCCNc1ncccc1-c1nc(Nc2cccc(Cl)c2)ncc1C [Compound 66, N-(3-{3-[2-(3-Chloro-phenylamino)-5-methyl-pyrimidin-4-yl]-pyridin-2-ylamino}-propyl)-acetamide] | > 50 | 15 to 50 | < 5 | 
26 | CC(C)(C)C(=O)NCCCNc1ncccc1-c1ccnc(Nc2cccc(Cl)c2)n1 [Compound 70, N-(3-{3-[2-(3-Chloro-phenylamino)-pyrimidin-4-yl]-pyridin-2-ylamino}-propyl)-2,2-dimethyl-propionamide] | 5 to 15 | 5 to 15 | < 5 | 
27 | CC(C)(C)CC(=O)NCCCNc1ncccc1-c1ccnc(Nc2cccc(Cl)c2)n1 [Compound 71, N-(3-{3-[2-(3-Chloro-phenylamino)-pyrimidin-4-yl]-pyridin-2-ylamino}-propyl)-3,3-dimethyl-butyramide] | 5 to 15 | > 50 | < 5 | 
28 | COCCCNc1ncccc1-c1ccnc(Nc2cccc(Cl)c2)n1 [Compound 75, (3-Chloro-phenyl)-{4-[2-(3-methoxy-propylamino)-pyridin-3-yl]-pyrimidin-2-yl}-amine] | 5 to 15 | < 5 | < 5 | 
29 | CC(=O)OCCCNc1ncccc1-c1ccnc(Nc2cccc(Cl)c2)n1 [Compound 76, Acetic acid 3-{3-[2-(3-chloro-phenylamino)-pyrimidin-4-yl]-pyridin-2-ylamino}-propyl ester] | 5 to 15 | < 5 | < 5 | 
30 | O=C1CCCN1CCCNc1ncccc1-c1ccnc(Nc2cccc(Cl)c2)n1 [Compound 77, 1-(3-{3-[2-(3-Chloro-phenylamino)-pyrimidin-4-yl]-pyridin-2-ylamino}-propyl)-pyrrolidin-2-one] | < 5 | < 5 | < 5 | 
31 | Clc1cccc(Nc2nccc(-c3cccnc3NCCCN3CCOCC3)n2)c1 [Compound 78, (3-Chloro-phenyl)-{4-[2-(3-morpholin-4-yl-propylamino)-pyridin-3-yl]-pyrimidin-2-yl}-amine] | 5 to 15 | < 5 | < 5 | 
32 | Cc1nccn1CCCNc1ncccc1-c1ccnc(Nc2cccc(Cl)c2)n1 [Compound 81, (3-Chloro-phenyl)-(4-{2-[3-(2-methyl-imidazol-1-yl)-propylamino]-pyridin-3-yl}-pyrimidin-2-yl)-amine] | < 5 | < 5 | < 5 | 
33 | Cc1cnc(Nc2cccc(Cl)c2)nc1-c1cccnc1NCCCn1ccnc1C [Compound 82, (3-Chloro-phenyl)-(5-methyl-4-{2-[3-(2-methyl-imidazol-1-yl)-propylamino]-pyridin-3-yl}-pyrimidin-2-yl)-amine] |  | 15 to 50 | < 5 | 5 to 15
34 | CC(=O)NCCCCNc1ncccc1-c1ccnc(Nc2cccc(Cl)c2)n1 [Compound 85, N-(4-{3-[2-(3-Chloro-phenylamino)-pyrimidin-4-yl]-pyridin-2-ylamino}-butyl)-acetamide] | < 5 | < 5 | < 5 | 
